Data set [1] concerns Candida albicans. The experiment in a line: Effect of antibacterial basic samples on growth of hand skin microflora, double dilution method. It is filed as cell-based. Also on record: key: +: confluent growth-of test microorganisms as in the control; +: retarded or depressed growth; -: no growth. The note with it: 5% solution of sample in purified water with 0.5% Tween 80, 30 minutes; 48 hours at 37 degrees Celsius. The protocol: (§1) A mixture consisting of purified water and 0.5% Tween 80 was used as a base to include the components of the complex. Samples were prepared using a magnetic stirrer by solubilizing the components of the quad complex in Tween 80 and gradually introducing them into purified water at 350 rpm. The stability of the samples was evaluated visually, by the absence of separation of the fatty phase from the aqueous solution. 2 strains of microorganisms of normal microflora, widely represented on the skin of the hands, were selected: Staphylococcus epidermidis and Micrococcus luteus. Microorganisms of transient opportunistic microflora present on the skin of the hands were also selected: Staphylococcus aureus, Escherichia coli and fungi of Candida albicans genus. Microorganisms were obtained by washing from the skin of the hands of subjects or using standard strains, cultivating isolated microorganisms and counting the number of grown colonies of microorganisms. The method of the analysis is based on the double dilution method and consists in preparing a suspension of bacterial cells of selected microorganisms (S. aureus, E. coli, C. albicans, S. epidermidis, M. luteus) separately at a concentration of 1×10^9 cells/ml. Next, 0.2 ml of a suspension of bacterial cells is added to 1.8 ml of a 5% solution of antibacterial components. In 30 minutes, 1 ml of the resulting mixture is added to a test tube with 9 ml of sterile saline 0.9%. In 15 more minutes, a series of dilutions is prepared in sterile saline to a concentration of 10^3 cells/ml. 0.1 ml of a solution of the initial concentration and successive dilutions is added to the surface of cups with a special nutrient medium for the growth of selected microorganisms separately. The cultures are incubated for 48 hours at 37 degrees Celsius and the colonies are counted by the standard method. The parameter for the overall assessment of the effect of the biologically active quad complex on the growth of representatives of the normal microflora was the presence or no growth of microorganisms, determined by the microbiologist based on the results of the study. The indicator of bacterial growth allows evaluating the effect of microflora on microorganisms and drawing a conclusion about the effect of the quad complex on the microflora of hand skin. The general positive trend in the use of the components of the claimed quad complex is the absence of a negative effect on the normal microflora of the skin of the hands and a pronounced antibacterial effect on the transient microflora, which will ensure the maintenance of natural non-pathogenic microflora for dermatological comfort and hygiene of hand skin.

In data set [2] the test system is Escherichia coli. Described as above. Also on record: key: +: confluent growth-of test microorganisms as in the control; +: retarded or depressed growth; -: no growth. The format is cell-based. To be noted: 5% solution of sample in purified water with 0.5% Tween 80, 30 minutes; 48 hours at 37 degrees Celsius. The procedure: as §1
Data set [3] concerns Micrococcus luteus. The data set is described as above. The format is cell-based. Also on record: key: +: confluent growth-of test microorganisms as in the control; +: retarded or depressed growth; -: no growth. To be noted: 5% solution of sample in purified water with 0.5% Tween 80, 30 minutes; 48 hours at 37 degrees Celsius. The procedure:
as §1

The subject of data set [4] is Staphylococcus aureus. The data set is described as above. It is filed as cell-based. Also on record: key: +: confluent growth-of test microorganisms as in the control; +: retarded or depressed growth; -: no growth. To be noted: 5% solution of sample in purified water with 0.5% Tween 80, 30 minutes; 48 hours at 37 degrees Celsius. The procedure:
as §1

Data set [5] concerns Staphylococcus epidermidis. The description is as above. The format is cell-based. Also on record: key: +: confluent growth-of test microorganisms as in the control; +: retarded or depressed growth; -: no growth. The note with it: 5% solution of sample in purified water with 0.5% Tween 80, 30 minutes; 48 hours at 37 degrees Celsius. The procedure:
as §1

The subject of data set [6] is Candida albicans. The description is as above. It is filed as cell-based. Also on record: key: ++: no growth; +: depressed growth in most areas; +: retarded growth in some areas; confluent growth-of test microorganisms. The note with it: 5% solution of sample in purified water with 0.5% Tween 80, 30 minutes; 48 hours at 37 degrees Celsius. The protocol:
as §1

For data set [7], the system named is Escherichia coli. The description is as above. The note with it: 5% solution of sample in purified water with 0.5% Tween 80, 30 minutes; 48 hours at 37 degrees Celsius. It is filed as cell-based. Also on record: key: ++: no growth; +: depressed growth in most areas; +: retarded growth in some areas; confluent growth-of test microorganisms. The protocol: as §1
Data set [8] has as its system Micrococcus luteus. Described as above. The format is cell-based. Also on record: key: ++: no growth; +: depressed growth in most areas; +: retarded growth in some areas; confluent growth-of test microorganisms. To be noted: 5% solution of sample in purified water with 0.5% Tween 80, 30 minutes; 48 hours at 37 degrees Celsius. The procedure: as §1
In data set [9] the test system is Staphylococcus aureus. The data set is described as above. It is filed as cell-based. Also on record: key: ++: no growth; +: depressed growth in most areas; +: retarded growth in some areas; confluent growth-of test microorganisms. To be noted: 5% solution of sample in purified water with 0.5% Tween 80, 30 minutes; 48 hours at 37 degrees Celsius. The protocol: as §1

Data set [10] relates to Staphylococcus epidermidis. The description is as above. It is filed as cell-based. Also on record: key: ++: no growth; +: depressed growth in most areas; +: retarded growth in some areas; confluent growth-of test microorganisms. The note with it: 5% solution of sample in purified water with 0.5% Tween 80, 30 minutes; 48 hours at 37 degrees Celsius. The protocol: as §1
The conditions of data set [11]: octanol to water; average logP for the essential oil; source not stated; cited from earlier work.

Here are results for 5 compounds from patent publication EP4316456A1, “BIOLOGICALLY ACTIVE QUADROCOMPLEX FOR REGULATING THE BIODIVERSITY OF SKIN MICROBIOTA” (SkyLab AG, priority 2021, dated 2022).

By logP is commonly meant a log measure of how a compound divides between an organic and an aqueous phase.

As for “Benzalkonium chloride [Benzalkonium chloride 0,1%]”, the growth of test-strain entry (with Candida albicans [1]; in the data set with Escherichia coli [2]; in the data set with Micrococcus luteus [3]; with Staphylococcus aureus [4]; in data set [5]) was “++” throughout.
`OO` [Hydrogen peroxide 3%, Hydrogen peroxide]: the growth of test-strain result (in the data set on Candida albicans [6]; with Escherichia coli [7]; in the data set with Micrococcus luteus [8]; in the data set with Staphylococcus aureus [9]; in data set [10]) was “+” each time.
On to `CCO` [Ethyl alcohol 96%, Ethyl alcohol], for which the growth of test-strain entry (in the data set with Candida albicans [1]; with Escherichia coli [2]; in the data set on Micrococcus luteus [3]; in the data set on Staphylococcus aureus [4]; in [5]) was “++” each time.
Take `CC(C)=CCC[C@](C)(O)[C@@H]1CC=C(C)CC1` [Alpha-bisabolol 0,10%, alpha-bisabolol]: the logP in [11] was 3.80. Besides, the growth of test-strain entry is “-” in the data set on Candida albicans [6]; “+” in the data set with Escherichia coli [7]; “-” with Micrococcus luteus [8]; “+” in the data set on Staphylococcus aureus [9]; “-” in [10].
Take `CC12CCC(CC1)C(C)(C)O2` [1,8-cineol 0,15%, 1,8-cineol]: in [11], the logP is listed as 2.82. For the same compound, the growth of test-strain entry in the data set on Candida albicans [6] is reported as “-”; in the data set on Escherichia coli [7] it was “+”; with Micrococcus luteus [8], “-”; in the data set on Staphylococcus aureus [9], “-”; in data set [10], “-”.
